Experimental data: patent US10973831B2, “Fluoropiperidine compounds as pure 5-HT 6 receptor antagonists” (SUVEN LIFE SCIENCES LIMITED, priority 2017, dated 2021)
Where a name gives a salt, the structure may show the parent alone.

Tests used:
recombinant human 5-HT2A = target: T1, recombinant human 5-HT2A (Homo sapiens, UniProt P28223); assay: Determination of 5-HT2A binding ([3H]-Ketanserin radioligand, membranes); conditions: human 5-HT2A membranes, [3H]-Ketanserin 1.75 nM
T1 construct: purchased Perkin Elmer ES-313-M400UA
T1 sequence (P28223 whole entry): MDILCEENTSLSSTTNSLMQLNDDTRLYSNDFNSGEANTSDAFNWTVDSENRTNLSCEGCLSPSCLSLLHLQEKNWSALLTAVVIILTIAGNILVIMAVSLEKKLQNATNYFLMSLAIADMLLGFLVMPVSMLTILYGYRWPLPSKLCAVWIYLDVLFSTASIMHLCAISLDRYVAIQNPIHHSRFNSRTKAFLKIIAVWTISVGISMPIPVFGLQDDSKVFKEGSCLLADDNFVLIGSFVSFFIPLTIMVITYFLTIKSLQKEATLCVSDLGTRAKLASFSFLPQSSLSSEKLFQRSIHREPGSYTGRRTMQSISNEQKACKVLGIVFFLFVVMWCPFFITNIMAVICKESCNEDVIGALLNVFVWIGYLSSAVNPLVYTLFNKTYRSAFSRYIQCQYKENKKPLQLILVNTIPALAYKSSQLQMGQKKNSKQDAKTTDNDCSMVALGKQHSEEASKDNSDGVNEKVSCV
Description: Membrane preparation from recombinant human 5-HT2A cell line (Cat no. ES-313-M400UA) and radio ligand Ketanserin Hydrochloride, [Ethylene-^3H]-(R-41468) (Cat no. NET791250UC) were purchased from Perkin Elmer. All other reagents used in buffer preparation were purchased from Sigma. The final ligand concentration was 1.75 nM; non-specific determinant was 1-NP [10 μM] and 5-HT2A membrane protein (5 μg/well). 1-NP was used as a positive control. Reactions were carried out in 67 mM Tris pH 7.6 containing 0.5 mM EDTA buffer for 60 minutes at 25° C. Reaction was stopped by rapid filtration followed by six washes of the binding mixture using 96 well harvest plate (Millipore Cat no. MSFBNXB50) pre coated with 0.33% polyethyleneimine. The plate was dried and the bound radioactivity collected on the filters was determined by scintillation counting using MicroBeta TriLux. Radio ligand binding in the presence of non-labeled compound was expressed as a percent of the total binding and plotted against the log concentration of the compound. Ki values were determined using a nonlinear, iterative curve-fitting computer program of Graph pad Prism 4 software.

[1] = target: T2, recombinant human 5-HT6 receptor (Homo sapiens, UniProt P50406); assay: Determination of Kb for 5-HT6 receptor (CHO cells, pCRE-Luc reporter, cAMP); format: cell-based; conditions: 10 μM serotonin, luciferase reporter
T2 construct: expressed in transfected cells
T2 sequence (P50406 whole entry): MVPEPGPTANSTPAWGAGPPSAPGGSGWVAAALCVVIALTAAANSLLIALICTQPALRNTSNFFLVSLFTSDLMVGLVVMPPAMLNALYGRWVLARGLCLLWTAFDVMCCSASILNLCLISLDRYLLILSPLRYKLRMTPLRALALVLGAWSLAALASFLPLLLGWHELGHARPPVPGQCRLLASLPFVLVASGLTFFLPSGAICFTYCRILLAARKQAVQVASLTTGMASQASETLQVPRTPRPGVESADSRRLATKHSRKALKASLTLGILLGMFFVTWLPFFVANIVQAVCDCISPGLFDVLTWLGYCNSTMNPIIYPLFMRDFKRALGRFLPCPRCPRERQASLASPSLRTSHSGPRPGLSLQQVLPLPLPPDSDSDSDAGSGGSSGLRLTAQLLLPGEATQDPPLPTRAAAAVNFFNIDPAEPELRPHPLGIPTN
Description: Determination of Kb for 5-HT6 Receptor: A stable CHO cell line expressing recombinant human 5-HT6 receptor and pCRE-Luc reporter system was used for cell based assay. The assay offers a non-radioactive based approach to determine binding of a compound to GPCRs. In this specific assay, the level of intracellular cyclic AMP which is modulated by activation or inhibition of the receptor is measured. The recombinant cells harbor luciferase reporter gene under the control of cAMP response element. The above cells were plated in 96 well clear bottom white plates at a density of 5×10^4 cells/well using Hams F12 medium containing 10% fetal bovine serum (FBS) and incubated overnight at 37° C. and 5% CO2 followed by serum starvation for 18-20 hrs. Increasing concentrations of test compounds were added along with 10 μM serotonin in Opti-MEM to the cells. The incubation was continued at 37° C. in CO2 incubator for 4 hours. After 4 hours cells were lysed using lysis buffer and luciferase assay buffer was added to each well and counts per second were recorded using luminescence counter. From counts per second (CPS) obtained, percent binding was calculated for each well by taking 10 μM 5-HT as 100% bound and vehicle as 0% bound. The percent bound values were plotted against compound concentrations and data were analyzed using a nonlinear, iterative curve-fitting computer program of Graph pad Prism 4 software. The Kb values were calculated using concentration of the agonist used in the assay.

[2] = Non-clinical toxicology, repeated dose toxicity study in rat; format: in vivo; conditions: rat, female rats
Description: (§1) The safety of the example 1 of instant invention and comparator example of U.S. Pat. No. 7,378,415 were evaluated in repeated dose toxicity study in rat.
(§2) Female rats were used as experimental animals for evaluating the toxicity profile of example 1 of instant invention and the comparator example of U.S. Pat. No. 7,378,415.
(§3) During the study, female rats were dosed at incremental doses for minimum of 4 days. Toxicity assessment was done on the mortality, clinical observation, change in the body weight, feed consumption, clinical and anatomical pathology. Systemic exposures were also estimated for both of the compounds. All quantitative variables are compared with control group using one-way ANOVA followed by Dunnet's post-hoc test on GraphPad Prism Software version 4, 2003.

Female rats = assay: as above; format: in vivo; conditions: repeated dose toxicity
Description: as §1, §2, §3

SMILES	Ki (recombinant human 5-HT2A) [nM]	Kb [1] [nM]	also measured
O=S(=O)(c1ccccc1)c1ccc2c(c1)N(C1CCNCC1F)CCO2 (single isomer, unassigned; peak iv) [Example 17, 6-Phenylsulfonyl-4-(3-fluoropiperidin-4-yl)-3,4-dihydro-2H-benzo[1,41]oxazine (Peak IV)]	907	1.79	
O=S(=O)(c1ccccc1)c1ccc2c(c1)OCCN2C1CCNCC1F (single isomer, unassigned; peak iv) [Example 4, 7-Phenylsulfonyl-4-(3-fluoropiperidin-4-yl)-3,4-dihydro-2H-benzo[1,4]oxazine hydrochloride (Peak IV)]	3930	0.4	
O=S(=O)(c1ccccc1)c1ccc2c(c1)N(C1CCNCC1F)CCO2 (single isomer, unassigned; peak ii) [Example 15, 6-Phenylsulfonyl-4-(3-fluoropiperidin-4-yl)-3,4-dihydro-2H-benzo[1,41]oxazine (Peak II)]	1660	1.25	
O=S(=O)(c1ccccc1)c1ccc2c(c1)OCCN2C1CCNCC1F (single isomer, unassigned; peak i) [Example 2, 7-Phenylsulfonyl-4-(3-fluoropiperidin-4-yl)-3,4-dihydro-2H-benzo[1,4]oxazine hydrochloride (Peak I)]	262	0.4	
O=S(=O)(c1ccccc1)c1ccc2c(c1)OCCN2C1CCNCC1F (single isomer, unassigned; peak ii) [Example 3, 7-Phenylsulfonyl-4-(3-fluoropiperidin-4-yl)-3,4-dihydro-2H-benzo[1,4]oxazine hydrochloride (Peak II)]	113	0.09	
O=S(=O)(c1cccc(F)c1)c1ccc2c(c1)OCCN2C1CCNCC1F (single isomer, unassigned; peak iv) [Example 8, 7-(3-Fluorophenylsulfonyl)-4-(3-fluoropiperidin-4-yl)-3,4-dihydro-2H-benzo[1,4]oxazine hydrochloride (Peak IV)]	804	19	
O=S(=O)(c1cccc(F)c1)c1ccc2c(c1)OCCN2C1CCNCC1F (single isomer, unassigned; peak iii) [Example 7, 7-(3-Fluorophenylsulfonyl)-4-(3-fluoropiperidin-4-yl)-3,4-dihydro-2H-benzo[1,4]oxazine hydrochloride (Peak III)]	19.7	< 0.1	
O=S(=O)(c1ccccc1)c1ccc2c(c1)OCCN2C1CCNCC1 [Comparator Example, 7-Phenylsulfonyl-4-(piperidin-4-yl)-3,4-dihydro-2H-benzo[1,4]oxazine, reference compound]	9.02	0.1	NOAEL at 7 days ([2]; in vivo, 7-Day repeat tox): 30 mg/kg; MTD ([2]; in vivo, repeated incremental doses, read-out: Maximum Tolerated Dose): 30 mg/kg; AUC ([2]; plasma, repeated dose toxicity study, read-out: AUC (systemic exposure in toxicity study)): 4050 ng·h/mL; Cmax ([2]; plasma, repeated dose toxicity study, read-out: Cmax (systemic exposure in toxicity study)): 280 ng/mL; Findings (mortality) (Female rats; listed as Comparator example of U.S. Pat. No. 7,378,415): Mortality at ≥; Findings (mortality) (Female rats; listed as comparator example of U.S. Pat. No. 7,378,415): deaths were observed at doses >100 mg/kg on second day of dosing
